“Also recorded” adds a separate entry of the source.
Assays:
[1] = tested on: hepatic stellate cells (HSC-T6) activated by TGF-β1; assay: Hepatic stellate cells (HSC-T6) activated by TGF-β1; assay type: cell-based; conditions: different concentrations of KD
Excerpt: HSCs are important cells involved in liver fibrosis. The activation of HSCs is a key element of the development of liver fibrosis, and its apoptosis can reverse liver fibrosis. Different concentrations of KD were used to […] the hepatic stellate cells (HSC-T6) activated by TGF-β1.

[2] = tested on: C57 mice with D-GalN/LPS acute liver failure; assay: Acute liver failure induced by D-GalN + LPS; assay type: in vivo
Procedure: 60 SPF male C57 mice were purchased and raised in the SPF experimental animal center of Tongji Medical College of Huazhong University of Science and Technology. The mice were provided with standard diet and drinking water. The room temperature was controlled at 23±2° C. After 7 days of adaptive feeding, the mice were administered by intragastric administration. The mice were divided into a control group (administered with distilled water), a model group (administered with distilled water), a high dose group (KD-400 group, 400 mg/kg KD), a medium dose group (KD-200 group, 200 mg/kg KD) and a low dose group (KD-100 group, 100 mg/kg KD), ten mice each group. The mice were weighed the next day, and were continuously administered with above drugs respectively for 10 days. One hour after the last gavage, the mice were injected intraperitoneally (the control group was injected with the same amount of normal saline). The agent for the intraperitoneal injection was galactosamine (D-GalN, 500 mg/kg)+lipopolysaccharide (LPS, Eschericia coli 0111: B4, 5 ug/kg), all purchased from Sigma-Aldrich.

[3] = tested on: C57BL/6 mice with HFFD nonalcoholic fatty liver; assay: Nonalcoholic fatty liver induced by high-fat and high fructose diet (HFFD); assay type: in vivo
Procedure: 60 SPF male C57BL/6 mice aged 4 weeks were raised in the SPF experimental animal center of Tongji Medical College of Huazhong University of Science and Technology. They were provided with standard diet and drinking water. The room temperature was controlled at 23±2° C. After 7 days of adaptive feeding, the mice were randomly divided into a control group with normal diet and a high-fat and high fructose diet group (40% fat, 40% fructose, 20% protein, HFFD). […] The mice were fed according to the groups, and the control group and the model group were fed with the same dose of normal saline for 4 weeks. […] The development of nonalcoholic fatty liver disease is closely related to the lipid levels of the liver and serum.

[4] = low, medium and high dose of KD

O=C1C[C@@H](O[C@@H]2O[C@H](CO)[C@@H](O)[C@H](O)[C@H]2O)CO1 [KD]
apoptosis of HSC-T6 [1]: promote its apoptosis | cell cycle of HSC-T6 [1]: could block the cell cycle of the HSC-T6 in the G0/G1 phase | proliferation of HSC-T6 [1]: inhibit its proliferation | bleeding and swelling of the liver (appearance) ([2]; KD 100-400 mg/kg, 10 days, gavage, silymarin dose not given): can significantly improve the bleeding and swelling of the liver | inflammatory cytokines TNF-α, IL-12p70, IFN-γ (flow cytometry kit) ([2]; high, medium and low dose groups): had significant anti-inflammatory effect | liver histopathological damage (H&E staining) ([2]; high, middle and low KD dose groups): can reduce liver histopathological damage | apoptotic marker proteins PARP and C-C3 (Western blot) ([2]; high-dose group): could reduce abnormal apoptosis of hepatocytes; also recorded: could down regulate the apoptotic protein | apoptosis of liver cells (Tunel fluorescence staining) ([2]; mouse, in vivo): could inhibit abnormal apoptosis of the liver cells | development of acute liver failure (overall) ([2]; mouse, in vivo): can effectively prevent the development of acute liver failure and reduce liver damage | endoplasmic reticulum stress, expansion and vesiculation ([2]; mouse, in vivo): could down-regulate the process | liver weight/body weight ([2]; mouse, in vivo): could improve the weight gain of liver bleeding | mitochondrial structure of the liver (transmission electron microscopy) ([2]; mouse, in vivo): the mitochondrial structure of the liver of the mice was protected | oxidative stress injuries (MDA, SOD) ([2]; mouse, in vivo): protect the mice from the oxidative stress injuries | free fatty acid level in the serum ([3]; each dose of KD): could significantly inhibit the level of free fatty acids; also recorded: could significantly inhibit the free fatty acid level in the serum | triglyceride in the liver ([3]; each dose of KD): could significantly inhibit the level of triglyceride in the liver | expression level of total macrophage marker molecule F4/80 ([3]; high dose KD): inhibited the expression level of total macrophage marker molecule F4/80; also recorded: could inhibit the expression level of the total macrophage marker molecule F4/80 | liver lipid degeneration, size and number of lipid droplets (photos, H&E staining) ([3]; high, middle and low dose groups, 4 weeks): could significantly reduce liver lipid denaturation induced by high-fat and high-fructose diet and reduce the size and number of lipid droplets in liver; also recorded: could significantly reduce the lipid degeneration and inhibit the size and number of lipid droplets | secretion of anti-inflammatory cytokine IL-10 in serum [3, 4]: promoted the secretion of the anti-inflammatory cytokine IL-10; also recorded: increase the secretion of anti-inflammatory cytokine IL-10 | secretion of proinflammatory cytokines IL-6, MCP-1, IFN-γ, TNF-α and IL-2 in serum [3, 4]: significantly inhibited the secretion of pro-inflammatory cytokines IL6, MCP-1, IFN-γ, TNF-α and IL-2; also recorded: can significantly inhibit the secretion of proinflammatory cytokines IL-6, MCP-1, IFN-γ, TNF-α and IL-2 | total cholesterol in liver and serum ([3]; low, medium and high doses of KD): significantly inhibited; also recorded: significantly reduced | serum LDL level ([3]; low-dose KD): could significantly inhibit the level of serum LDL in mice | expression of COX-2 and M1-type macrophage molecules IL6 and IFN ([3]; medium and high dose KD): significantly inhibited the expression level of inflammatory molecule COX-2; also recorded: could significantly inhibit the expression level of inflammatory molecule COX-2 and the inflammatory M1-type macrophage molecules IL6 and IFN | expression of M2-type macrophage marker molecules CD206, ARG1 and IL1β ([3]; medium and high dose KD): promoted the expression of anti-inflammatory M2-type macrophage marker molecules CD206, ARG1 and IL1; also recorded: promote the expression of anti-inflammatory M2-type macrophage marker molecules CD206, ARG1 and IL1β | therapeutic effect on nonalcoholic fatty liver (overall, vs silymarin 50 mg/kg) ([3]; mouse, in vivo): the therapeutic effect was better than that of silymarin; also recorded: significantly better than that of silymarin; also recorded: has a good therapeutic effect on non-alcoholic fatty liver
